Experimental data: patent publication US20180303878A1, “TREATMENT FOR INFECTION COMPOSED OF MENSTRUAL STEM CELLS” (CELLS FOR CELLS, S.P.A., priority 2015, published 2018)

Tests used:
Assay type in all cases: in vivo, C57BL6/j mice
CLP-induced sepsis [1] = experiment: Blood biochemical analysis in CLP mice; conditions: serum 24 hours post-surgery; sham 47.67±3.18, saline 90±21.47
Experimental: (§1) In vivo studies were performed at the Universidad de los Andes-Cells for Cells Animal Facility (Santiago, Chile) in accordance with the institutional guidelines for the care and use of laboratory animals in research, revised and approved by the Institutional Ethical Committee for animal experimentation. C57BL6/j mice (8 to 12 weeks old; Jackson Laboratories, Bar Harbor, Me., USA) received ad libitum access to food and water during the whole experimental procedure. CLP-induced sepsis was performed as described previously (Rittirsch D et al., Immunodesign of experimental sepsis by cecal ligation and puncture. Nat Protoc. 2009) with some modifications. […]
(§2) Three hours after CLP-induced sepsis, mice were randomized and distributed into different experimental groups to receive single injections of saline (vehicle) (n=16), antibiotics (AB) (n=22), MenSCs (n=21), MenSCs+AB (n=22), MenSC CM (n=16), or MenSC CM+AB (n=22). […] For Kaplan-Meier survival curves, animals were assessed after CLP-induced sepsis every 12 hours for 4 days. […]
Plasma levels of blood urea nitrogen (BUN), bilirubin, alanine aminotransferase (ALT), aspartate aminotransferase (AST), alkaline phosphatase (ALP), albumin, amylase, and glucose were evaluated by using the Piccolo Xpress™ Chemistry Analyzer (Abaxis, Union City, Calif., USA) in accordance with the instructions of the manufacturer. […]

CLP-induced sepsis [2] = experiment: Bacterial numbers in blood, peritoneal cavity and spleen in CLP-induced sepsis; conditions: 24 hours post-CLP, in comparison with saline group, P≤0.05
Experimental: as §1, with “modifications. Briefly, mice were anesthetized with inhaled Sevofluorane (Baxter, Guayama, Puerto Rico) by using an anesthetic vaporizer. After a 1-cm incision was performed, the cecum was exposed and ligated in the middle portion with 5-0 dafilon suture (Braun, Rubi, Spain), punctured once with an 18-gauge needle (in order to induce high-grade sepsis), and returned to the peritoneal cavity. The abdominal incision was sutured with catgut 5-0 (Braun, Bogota, Colombia), and the skin was closed with Histoacryl (Braun).” for “modifications.”
Total blood, peritoneal fluid, and homogenized spleen in sterile saline were plated in a 10-fold dilution on blood agar plates and incubated at 37° C. overnight, and the number of CFUs was determined.

CLP-induced sepsis [3] = experiment: Survival in polymicrobial CLP-induced sepsis (Kaplan-Meier); conditions: 96 hours after treatment; treatment 3 hours after CLP; MenSCs 7.5×10^5 cells/mice intra-peritoneal, Enrofloxacin 5 mg/kg
Experimental: as §1, with “modifications. Briefly, mice were anesthetized with inhaled Sevofluorane (Baxter, Guayama, Puerto Rico) by using an anesthetic vaporizer.” for “modifications.”
as §2
Data are expressed as mean±standard error. […]

CLP-induced sepsis [4] = experiment: Cytokine multiplex array evaluation in CLP mice; conditions: 40 hours post-CLP, P≤0.05
Experimental: as §1, with “modifications. Briefly, mice were anesthetized with inhaled Sevofluorane (Baxter, Guayama, Puerto Rico) by using an anesthetic vaporizer.” for “modifications.”
The levels of inflammatory cytokines-monocyte chemoattractant protein-1 (MCP-1), TNF-α, IL-6, and […]—in CLP mice serum samples were determined by using a commercial BD™ Cytometric Bead Array Mouse Inflammation Kit (BD Biosciences Pharmingen, San Diego, Calif., USA) in accordance with the instructions of the manufacturer. Analysis was carried out by flow cytometry, and the concentration (in picograms per milliliter) was determined by using FCAP Array software (BD Biosciences). The parameters were determined 24 and 40 hours after CLP surgery.

`CCN1CCN(c2cc3c(cc2F)c(=O)c(C(=O)O)cn3C2CC2)CC1` [AB, Enrofloxacin] was tested. Which “alkaline phosphatase (ALP) concentration” value (CLP-induced sepsis [1]) did it give?
Its value is 74.25±12.03 U/l.

And the “CFU counts in peritoneal lavage” value (CLP-induced sepsis [2])?
Its value is “decreased”.

And the survival rate (CLP-induced sepsis [3])?
Its survival rate is 73%.

And the IL-6 serum levels (CLP-induced sepsis [4]; in comparison with saline group)?
The IL-6 serum levels was “decreased”.

What about the “levels of IL-10” value (CLP-induced sepsis [4]; in comparison with untreated mice) of the same compound?
Its value is “reduction”.
